Measurements: article PMC3145798, “The Extracytoplasmic Domain of the Mycobacterium tuberculosis Ser/Thr Kinase PknB Binds Specific Muropeptides and Is Required for PknB Localization” (PLoS Pathogens, 2011)
“Also recorded” adds a separate entry of the source. *1 amine or outer side, *2 acyl side, *3 side chain or, on linkers, in order; H or OH if unused. Where a SMILES comes first, the peptide text is derived from it. [ ]: non-standard residue; d: D form. Mur = C[C@@H](O[C@H]1[C@H](O)[C@@H](CO)OC(O)[C@@H]1N[*:1])C(=O)[*:2]; d(isoGln) = NC(=O)[C@@H](CCC(=O)[*:2])N[*:1]

Legend:
[1] = molecular target: T1, extracytoplasmic domain of M. tuberculosis PknB (ED-PknB, PASTA domains) (Mycobacterium tuberculosis, UniProt P9WI81); assay: Surface plasmon resonance (Biacore) binding of synthetic muropeptides to immobilized ED-PknB; set-up: ka1: unit not given here; details: for decrease in binding compared to compound 6a: ratio of affinities relative to 6a; for ka1 / ka2 / kd1 / kd2 / Kd: two-state binding model; for ka1 / ka2 / kd1 / kd2: 25°C
T1 construct: GST (N, cleaved yes); made in house; host or cells: Escherichia coli BL21 (DE3)
T1 sequence (P9WI81 354-626): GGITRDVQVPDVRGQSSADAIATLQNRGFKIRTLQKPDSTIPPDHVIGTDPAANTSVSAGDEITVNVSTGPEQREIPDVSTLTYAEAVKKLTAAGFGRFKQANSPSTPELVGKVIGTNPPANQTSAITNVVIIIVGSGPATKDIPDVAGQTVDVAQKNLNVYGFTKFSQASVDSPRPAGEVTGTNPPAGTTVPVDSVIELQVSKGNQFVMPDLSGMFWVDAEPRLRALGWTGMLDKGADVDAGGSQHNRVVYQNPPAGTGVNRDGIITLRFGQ

[2] = tested on: dormant M. tuberculosis H37Rv cells; assay: Dormancy and resuscitation assay (most probable number); assay type: cell-based, Mycobacterium tuberculosis H37Rv; details: for Fold increase in viable cell number relative to cultures grown in Sauton's medium without additive: muropeptide at 10 times the KD of 6c, spent medium 50%, MPN after 2 months at 37°C; for increase in viability relative to cells in fresh medium alone: two independent experiments (6 or 9 months hypoxic), experiment not assigned, most probable number analysis
[3] = SPR Biacore T100, ED-PknB on CM-5 chip (5,000 RU), HBS-EP pH 7.4, 25°C, Table 1 and text
[4] = Table S1, SPR, ED-PknB on CM-5 chip (5,000 RU)
[5] = Experiment 1: 6 month old dormant culture
[6] = Experiment 2: 9 month old dormant culture

CC(=O)N[C@H]1C(O)O[C@H](CO)[C@@H](O)[C@@H]1O[C@H](C)C(=O)N[C@@H](C)C(=O)N[C@H](CCC(=O)N[C@@H](CCC[C@@H](N)C(=O)O)C(=O)N[C@H](C)C(=O)N[C@H](C)C(N)=O)C(N)=O (some centres unmarked) [MPP-DAP (amide/acid) 7]
decrease in binding compared to compound 6a ([1]; SPR): about two-fold
ka1 ([1]; Table S1, SPR): 4316
ka2 ([1]; Table S1, SPR): 1.4 10^-3 s^-1
kd1 ([1]; Table S1, SPR): 161.5 10^-3 s^-1
kd2 ([1]; Table S1, SPR): 2.8 10^-3 s^-1

CC(=O)N[C@H]1C(O)O[C@H](CO)[C@@H](O)[C@@H]1O[C@H](C)C(=O)N[C@@H](C)C(=O)N[C@H](CCC(=O)N[C@@H](CCCCN)C(=O)N[C@H](C)C(=O)N[C@H](C)C(N)=O)C(N)=O (stereo partly drawn) [MPP-Lys (D-Ala) 3a] (Ac-[Mur]A[d(isoGln)]K[dA][dA]-NH2)
Kd [1, 3]: > 500 µM
Kd [1, 4]: > 500 µM

CC(=O)N[C@H]1C(O)O[C@H](CO)[C@@H](O)[C@@H]1O[C@H](C)C(=O)N[C@@H](C)C(=O)N[C@H](CCC(=O)N[C@@H](CCCCN)C(=O)N[C@H](C)C(=O)NCC(N)=O)C(N)=O (some centres unmarked) [MPP-Lys (Gly) 3b] (Ac-[Mur]A[d(isoGln)]K[dA]G-NH2)
Kd [1, 3]: > 500 µM
Kd [1, 4]: > 500 µM
Fold increase in viable cell number relative to cultures grown in Sauton's medium without additive [2, 5]: 0.9 fold
Fold increase in viable cell number relative to cultures grown in Sauton's medium without additive [2, 6]: 1 fold
increase in viability relative to cells in fresh medium alone [2]: No increase in viability

CC(=O)N[C@H]1C(O)O[C@H](CO)[C@@H](O)[C@@H]1O[C@H](C)C(=O)N[C@@H](C)C(=O)N[C@H](CCC(=O)N[C@@H](CCC[C@@H](N)C(=O)O)C(N)=O)C(N)=O (some centres unmarked) [MTP-DAP (amide/acid) 5]
ka1 ([1]; Table S1, SPR): 5577
ka2 ([1]; Table S1, SPR): 1.64 10^-3 s^-1
kd1 ([1]; Table S1, SPR): 172.9 10^-3 s^-1
kd2 ([1]; Table S1, SPR): 3.86 10^-3 s^-1

CC(=O)N[C@H]1C(O)O[C@H](CO)[C@@H](O)[C@@H]1O[C@H](C)C(=O)N[C@@H](C)C(=O)N[C@H](CCC(=O)N[C@@H](CCCCN)C(N)=O)C(N)=O (some centres unmarked) [MTP-Lys (amide) 1]
Kd [1, 3]: > 500 µM
Kd [1, 4]: > 500 µM

CC(=O)N[C@H]1C(O)O[C@H](CO)[C@@H](O)[C@@H]1O[C@H](C)C(=O)N[C@@H](C)C(=O)N[C@H](CCC(=O)N[C@@H](CCC[C@@H](N)C(=O)O)C(=O)N[C@H](C)C(N)=O)C(=O)O (some centres unmarked) [MTrP-DAP (acid/acid) 6d]
decrease in binding compared to compound 6a ([1]; SPR): four-fold
ka1 ([1]; Table S1, SPR): 1931
ka2 ([1]; Table S1, SPR): 2.0 10^-3 s^-1
kd1 ([1]; Table S1, SPR): 168.7 10^-3 s^-1
kd2 ([1]; Table S1, SPR): 3.2 10^-3 s^-1

CC(=O)N[C@H]1C(O)O[C@H](CO)[C@@H](O)[C@@H]1O[C@H](C)C(=O)N[C@@H](C)C(=O)N[C@H](CCC(=O)N[C@@H](CCCC(N)C(N)=O)C(=O)N[C@H](C)C(N)=O)C(=O)O (some centres unmarked) [MTrP-DAP (acid/amide) 6b]
binding to ED-PknB in words ([1]; SPR): did not show measurable binding
Kd [1, 3]: > 100 µM
Kd [1, 4]: > 100 µM

CC(=O)N[C@H]1C(O)O[C@H](CO)[C@@H](O)[C@@H]1O[C@H](C)C(=O)N[C@@H](C)C(=O)N[C@H](CCC(=O)N[C@@H](CCC[C@@H](N)C(=O)O)C(=O)N[C@H](C)C(N)=O)C(N)=O (some centres unmarked) [MTrP-DAP (amide/acid) 6a]
binding to ED-PknB in words ([1]; SPR): exhibited the highest affinity
ka1 ([1]; Table S1, SPR): 3451
ka2 ([1]; Table S1, SPR): 1.83 10^-3 s^-1
kd1 ([1]; Table S1, SPR): 100.7 10^-3 s^-1
kd2 ([1]; Table S1, SPR): 1.4 10^-3 s^-1

CC(=O)N[C@H]1C(O)O[C@H](CO)[C@@H](O)[C@@H]1O[C@H](C)C(=O)N[C@@H](C)C(=O)N[C@H](CCC(=O)N[C@@H](CCC[C@@H](N)C(N)=O)C(=O)N[C@H](C)C(N)=O)C(N)=O (some centres unmarked) [MTrP-DAP (amide/amide) 6c]
Kd [1, 4]: 14.9 µM
ka1 ([1]; Table S1, SPR): 342.8
ka2 ([1]; Table S1, SPR): 41.5 10^-3 s^-1
kd1 ([1]; Table S1, SPR): 57.8 10^-3 s^-1
kd2 ([1]; Table S1, SPR): 4.02 10^-3 s^-1
Fold increase in viable cell number relative to cultures grown in Sauton's medium without additive [2, 5]: 9 fold
Fold increase in viable cell number relative to cultures grown in Sauton's medium without additive [2, 6]: 3 fold
increase in viability relative to cells in fresh medium alone [2]: three; also recorded: nine-fold

CC(=O)N[C@H](CCC[C@H](NC(=O)CC[C@@H](NC(=O)[C@H](C)NC(=O)[C@@H](C)O[C@H]1[C@H](O)[C@@H](CO)OC(O)[C@@H]1NC(C)=O)C(N)=O)C(=O)N[C@H](C)C(N)=O)C(=O)O (some centres unmarked) [MTrP-DAP(amide/acid)NHAc 6e]
decrease in binding compared to compound 6a ([1]; SPR): six-fold
ka1 ([1]; Table S1, SPR): 354.2
ka2 ([1]; Table S1, SPR): 6.6 10^-3 s^-1
kd1 ([1]; Table S1, SPR): 106 10^-3 s^-1
kd2 ([1]; Table S1, SPR): 2.2 10^-3 s^-1

CC(=O)NCCCC[C@H](NC(=O)CC[C@@H](NC(=O)[C@H](C)NC(=O)[C@@H](C)O[C@H]1[C@H](O)[C@@H](CO)OC(O)[C@@H]1NC(C)=O)C(N)=O)C(=O)N[C@H](C)C(N)=O (some centres unmarked) [MTrP-Lys (amide) NHAc 2b]
Kd [1, 3]: > 500 µM
Kd [1, 4]: > 500 µM

C[C@H](N)C(=O)N[C@H](CCC(=O)N[C@@H](CCCCN)C(=O)N[C@H](C)C(=O)N[C@H](C)C(N)=O)C(N)=O [Peptide 4 (amide)] (H-A[d(isoGln)]K[dA][dA]-NH2; N-terminus assumed)
binding to ED-PknB in words ([1]; SPR): Neither compound showed significant interaction

CC(=O)N[C@@H](C)C(=O)N[C@H](CCC(=O)N[C@@H](CCCC(N)C(=O)O)C(=O)N[C@H](C)C(=O)N[C@H](C)C(N)=O)C(N)=O (some centres unmarked) [Peptide 8 (amide/amide)]
binding to ED-PknB in words ([1]; SPR): Neither compound showed significant interaction
Kd [1, 3]: > 500 µM
Kd [1, 4]: > 500 µM
